Like-named read-outs stand apart in the source and are kept apart here.
Experiments:
Type in all cases: cell-based, human
MX-1 (breast carcinoma) = assay: Cytotoxicity/growth inhibition assay, MX-1; conditions: read-out: IC50 (MX-1)
Description: (§1) The human cancer cell lines DLD-1 (colorectal adenocarcinoma), LNCap (prostate carcinoma), and OVCAR-3 (ovarian carcinoma) were obtained from the American Type Culture Collection, Manassas, Va., U.S.A., and HL-60 (promyeloid myelocytic leukemia), MX-1 (breast carcinoma), P388, and P388ADR from the National Cancer Institute, Bethesda, Md., U.S.A. Carboplatin, doxorubicin, and melphalan were obtained from Sigma-Aldrich Chemical Company, St. Louis, Mo., U.S.A. The CellTiter-Glo assay kit was obtained from Promega Corporation, Madison, Wis., U.S.A., and the Cellular DNA Cytometric Analysis Reagent Kit from Roche Diagnostics Corporation, Indianapolis, Ind., U.S.A. Lambda DNA was obtained from New England Biolabs, Beverly, Mass., U.S.A., and SYBR-Gold from Molecular Probes, Inc., Eugene, Oreg., U.S.A. The DNeasy Tissue Kit was obtained from Qiagen Inc., Valencia, Calif., U.S.A., and AmpliTaq Gold DNA polymerase and PCR reagents from Applied Biosystems, Foster City, Calif., U.S.A. All products were used in accordance with manufacturer's directions. All assays were conducted in triplicate wells, with dimethyl sulfoxide (DMSO) solvent control. The extent of cell growth was expressed as a percentage of the signal from the solvent control wells.
(§2) Log-phase cells were trypsinized, collected by centrifugation, and resuspended in a small volume of fresh medium, and the density of viable cells was determined following Trypan Blue staining. Cells were diluted in fresh media (3×10^3 cells/mL for MX-1, 3×10^3 cells/mL for DLD-1, and 6×10^3 cells/mL for LNCap cells), the test compounds (concentrations between 0.1 and 200 μM, dissolved in DMSO, 50 μL) added immediately after dilution to achieve a final DMSO concentration of 0.5%, then the suspensions added at 150 μL/well to 96-well plates, and incubated for several hours to allow attachment in the case of adherent cells. The cells were cultured for approximately three doubling times (3 days for MX-1 and 4 days for DLD-1 and LNCap). The cells were then collected by centrifugation, and 100 μL of the culture supernatant was replaced by the CellTiter-Glo reagent. After incubation for 15 minutes at room temperature, and the plate was read with a luminometer.

[1] = system: LNCap (prostate carcinoma); assay: Cytotoxicity/growth inhibition assay, LNCap; conditions: read-out: IC50 (LNCap)
Description: as §1, §2

[2] = system: DLD-1 (colorectal adenocarcinoma); assay: Cytotoxicity/growth inhibition assay, DLD-1; conditions: read-out: IC50 (DLD-1)
Description: as §1, §2

[3] = MX-1 cells, 3 days culture, CellTiter-Glo, 0.1-200 μM tested
[4] = LNCap cells, 4 days culture, CellTiter-Glo, 0.1-200 μM tested
[5] = DLD-1 cells, 4 days culture, CellTiter-Glo, 0.1-200 μM tested

Structure (SMILES)	IC50 (MX-1 (breast carcinoma); [3]) [µM]	IC50 [1, 4] [µM]	IC50 [2, 5] [µM]	IC50 (MX-1 (breast carcinoma); Homo sapiens, MX1, 72 h) [µM]	IC50 ([1]; Homo sapiens, LNCaP, 96 h) [µM]	IC50 ([2]; Homo sapiens, DLD-1, 96 h) [µM]
CCS(=O)(=O)CCOP(=O)(N(CCCl)CCCl)N(CCCl)CCCl [Compound 1A]	16.9	57.1	9.1			
O=P(OCCS(=O)(=O)CCS(=O)(=O)CCOP(=O)(N(CCCl)CCCl)N(CCCl)CCCl)(N(CCCl)CCCl)N(CCCl)CCCl [Compound 1B]	4	5.1	2.5			
O=P(OCCS(=O)(=O)CCOP(=O)(N(CCCl)CCCl)N(CCCl)CCCl)(N(CCCl)CCCl)N(CCCl)CCCl [Compound 1C, di[2-[[bis[bis(2-chloroethyl)amino]phosphinyl]oxy]ethyl]sulfone]				0.3	1.4	0.3
C=CS(=O)(=O)CCOP(=O)(N(CCCl)CCCl)N(CCCl)CCCl [Compound 2A]	3.2	105	1.4			
CC(C(C)S(=O)(=O)CCOP(=O)(N(CCCl)CCCl)N(CCCl)CCCl)S(=O)(=O)CCOP(=O)(N(CCCl)CCCl)N(CCCl)CCCl (stereo not drawn) [Compound 2B]	≥ 200	10.9	0.3			
CCCS(=O)(=O)CCOP(=O)(N(CCCl)CCCl)N(CCCl)CCCl [Compound 3A]	11.4	67.6	9.2			
O=P(OCCS(=O)(=O)CCCS(=O)(=O)CCOP(=O)(N(CCCl)CCCl)N(CCCl)CCCl)(N(CCCl)CCCl)N(CCCl)CCCl [Compound 3B]	7.4	14.8	4.3			
CC(C)S(=O)(=O)CCOP(=O)(N(CCCl)CCCl)N(CCCl)CCCl [Compound 4A]	24	67.8	12.7			
O=P(OCCS(=O)(=O)CCCCS(=O)(=O)CCOP(=O)(N(CCCl)CCCl)N(CCCl)CCCl)(N(CCCl)CCCl)N(CCCl)CCCl [Compound 4B]	4.1	11.5	2.9			
CC(C)CS(=O)(=O)CCOP(=O)(N(CCCl)CCCl)N(CCCl)CCCl [Compound 6A]	4.6	17.7	6.8			
CC(C)(C)S(=O)(=O)CCOP(=O)(N(CCCl)CCCl)N(CCCl)CCCl [Compound 7A]	20.6	165	21.8			
O=P(OCCS(=O)(=O)CCCCCCCCS(=O)(=O)CCOP(=O)(N(CCCl)CCCl)N(CCCl)CCCl)(N(CCCl)CCCl)N(CCCl)CCCl [Compound 7B]	1.9	9.5	1.5			
CCC(C)CS(=O)(=O)CCOP(=O)(N(CCCl)CCCl)N(CCCl)CCCl (stereo not drawn) [Compound 8A]	17.5	40.9	7			
O=P(OCCS(=O)(=O)CCOCCS(=O)(=O)CCOP(=O)(N(CCCl)CCCl)N(CCCl)CCCl)(N(CCCl)CCCl)N(CCCl)CCCl [Compound 8B]	10.9	28	6.5			
CC(C)CCS(=O)(=O)CCOP(=O)(N(CCCl)CCCl)N(CCCl)CCCl [Compound 9A]	5.8	17.3	5.9			
O=P(OCCS(=O)(=O)CCOCCOCCS(=O)(=O)CCOP(=O)(N(CCCl)CCCl)N(CCCl)CCCl)(N(CCCl)CCCl)N(CCCl)CCCl [Compound 9B]	6	25.5	6.1			
O=C(O)CCNC(=O)CS(=O)(=O)CCOP(=O)(N(CCCl)CCCl)N(CCCl)CCCl [Compound 39A]	30.8		13.3			
O=C(O)CNC(=O)CS(=O)(=O)CCOP(=O)(N(CCCl)CCCl)N(CCCl)CCCl [Compound 40A]	32		13			
CC(C)(C)OC(=O)CC(NC(=O)CS(=O)(=O)CCOP(=O)(N(CCCl)CCCl)N(CCCl)CCCl)C(N)=O (stereo not drawn) [Compound 41A]	29.3		10.8			
CC(C)(C)OC(=O)[C@@H]1CCCN1C(=O)CS(=O)(=O)CCOP(=O)(N(CCCl)CCCl)N(CCCl)CCCl [Compound 42A]	7.6		4.7			
CC(NC(=O)CS(=O)(=O)CCOP(=O)(N(CCCl)CCCl)N(CCCl)CCCl)C(=O)OC(C)(C)C (stereo not drawn) [Compound 44A]	34.8		11.1			
CC(C)(C)OC(=O)CN1CCN(C(=O)CS(=O)(=O)CCOP(=O)(N(CCCl)CCCl)N(CCCl)CCCl)CC1 [Compound 47A]	15.9		9.3			
COCCNC(=O)CS(=O)(=O)CCOP(=O)(N(CCCl)CCCl)N(CCCl)CCCl [Compound 48A]	4.4		15.5			

Structure (SMILES)	IC50 (MX-1 (breast carcinoma); [3]) [µM]	IC50 [1, 4] [µM]	IC50 [2, 5] [µM]	IC50 (MX-1 (breast carcinoma); Homo sapiens, MX1, 72 h) [µM]	IC50 ([1]; Homo sapiens, LNCaP, 96 h) [µM]	IC50 ([2]; Homo sapiens, DLD-1, 96 h) [µM]
O=C(CS(=O)(=O)CCOP(=O)(N(CCCl)CCCl)N(CCCl)CCCl)NCCO [Compound 49A]	29		11.6			
CCNC(=O)CS(=O)(=O)CCOP(=O)(N(CCCl)CCCl)N(CCCl)CCCl [Compound 50A]	17.1		11.9			
O=C(CS(=O)(=O)CCOP(=O)(N(CCCl)CCCl)N(CCCl)CCCl)N1CCOCC1 [Compound 51A]	6.9		6.7			
O=C(CS(=O)(=O)CCOP(=O)(N(CCCl)CCCl)N(CCCl)CCCl)N1CCC(O)CC1 [Compound 52A]	15.6		10.2			
CNC(=O)CCS(=O)(=O)CCOP(=O)(N(CCCl)CCCl)N(CCCl)CCCl [Compound 53A]	11.3		8.4			
CCNC(=O)CCS(=O)(=O)CCOP(=O)(N(CCCl)CCCl)N(CCCl)CCCl [Compound 54A]	9.3		7.4			
O=C(CCS(=O)(=O)CCOP(=O)(N(CCCl)CCCl)N(CCCl)CCCl)NC1CC1 [Compound 55A]	14.7		10.1			
O=C(CCS(=O)(=O)CCOP(=O)(N(CCCl)CCCl)N(CCCl)CCCl)NCCO [Compound 56A]	19.3		8.2			
COCCNC(=O)CCS(=O)(=O)CCOP(=O)(N(CCCl)CCCl)N(CCCl)CCCl [Compound 57A]	18		10.1			
O=C(CCS(=O)(=O)CCOP(=O)(N(CCCl)CCCl)N(CCCl)CCCl)N1CCOCC1 [Compound 58A]	17		12.9			
O=C(CCS(=O)(=O)CCOP(=O)(N(CCCl)CCCl)N(CCCl)CCCl)N1CCC(O)CC1 [Compound 59A]	25.4		15.1			
O=C(CS(=O)(=O)CCOP(=O)(N(CCCl)CCCl)N(CCCl)CCCl)NC1CC1 [Compound 60A]	11.3		7.4			
NC(=O)C(CC(=O)O)NC(=O)CS(=O)(=O)CCOP(=O)(N(CCCl)CCCl)N(CCCl)CCCl (stereo not drawn) [Compound 61A]	30.9		20			
O=C(O)[C@@H]1CCCN1C(=O)CS(=O)(=O)CCOP(=O)(N(CCCl)CCCl)N(CCCl)CCCl [Compound 62A]	15		16.5			
CC(C)C(NC(=O)CS(=O)(=O)CCOP(=O)(N(CCCl)CCCl)N(CCCl)CCCl)C(=O)O (stereo not drawn) [Compound 63A]	10		17.2			
CC(NC(=O)CS(=O)(=O)CCOP(=O)(N(CCCl)CCCl)N(CCCl)CCCl)C(=O)O (stereo not drawn) [Compound 64A]	37.3		22			
NC(=O)CC(NC(=O)CS(=O)(=O)CCOP(=O)(N(CCCl)CCCl)N(CCCl)CCCl)C(=O)O (stereo not drawn) [Compound 65A]	31.8		21.4			
CS(=O)(=O)CCC(NC(=O)CS(=O)(=O)CCOP(=O)(N(CCCl)CCCl)N(CCCl)CCCl)C(=O)O (stereo not drawn) [Compound 66A]	29.1		18.8			
O=C(CS(=O)(=O)CCOP(=O)(N(CCCl)CCCl)N(CCCl)CCCl)N1CCNCC1 [Compound 68A]	36.7		18			
O=C(CS(=O)(=O)CCOP(=O)(N(CCCl)CCCl)N(CCCl)CCCl)N1CCN(CCO)CC1 [Compound 69A]	34.6		14.1			
COC(=O)[C@H](CS(=O)(=O)CCOP(=O)(N(CCCl)CCCl)N(CCCl)CCCl)NS(C)(=O)=O [Compound 79A, N-(Methanesulfonyl)-3-[[2-[[bis[bis(2-chloroethyl)amino]phosphinyl]oxy]ethyl]sulfonyl]-L-alanine methyl ester]				88		26.6
O=C(Nc1cccc(CS(=O)(=O)CCOP(=O)(N(CCCl)CCCl)N(CCCl)CCCl)c1)C1CCCNC1 (stereo not drawn) [Compound 148A]	≥ 200		≥ 200			
CN(C)CCNC(=O)c1ccc(CS(=O)(=O)CCOP(=O)(N(CCCl)CCCl)N(CCCl)CCCl)cc1 [Compound 173A]	104		37.9			
